Measured values from patent US7550582B2, “Polyamide nucleic acid derivatives and agents, and processes for preparing them” (sanofi-aventis Deutschland GmbH, priority 2000, dated 2009).

What was measured:
complementary RNA = assay: Determining the melting temperatures (complementary RNA); type: binding; details: 140 mM KCl, 10 mM sodium dihydrogen phosphate, 0.1 mM EDTA (pH 7.4); oligomer 0.5 to 1 OD260 per ml
Experimental: (§1) The melting temperatures were determined using an HP 8452A diode-array spectrophotometer, an HP 89090A Peltier element and HP Temperature Control Software Rev. B5.1 (from Hewlett Packard). Measurements were taken in 0.5° C./min steps in 140 mM KCl, 10 mM sodium dihydrogen phosphate, 0.1 mM EDTA (pH 7.4) as the buffer. The oligomer concentration was from 0.5 to 1 OD260 per ml.

complementary DNA = assay: Determining the melting temperatures (complementary DNA); type: binding; details: for Tm (DNA): 140 mM KCl, 10 mM sodium dihydrogen phosphate, 0.1 mM EDTA (pH 7.4), oligomer 0.5 to 1 OD260 per ml; for degree of binding towards complementary DNA and RNA compared with the uncharged PNA (reference substance): melting temperature experiment
Experimental: as §1

[1] = system: REH cells (human pre-B leukemia cells, DSM ACC 22); assay: Inhibiting cell proliferation; type: cell-based; details: 10 μM, after >4 days of incubation
Experimental: The sequence of PNA-6 is directed against the translation start of the Ha-ras mRNA. REH cells (human pre-B leukemia cells, DSM ACC 22) or A549 tumor cells were cultured, at 37° C. and under 5% CO2, in OptiMEM (Gibco BRL) containing 10% fetal calf serum (FCS, GIBCO-BRL). The cell density for the assay was approx. 1×10^6/ml. The PNA-6 (10 μM) was incubated with the cells in 24-well plates. After incubating at 37° C. and under 5% CO2 for 96 hours, the cell density was determined. Mean values for the cell density were determined from 3 individual wells at a given PNA concentration. […] After >4 days of incubation, the inhibition brought about by PNA-6 was greater than that brought about by a corresponding phosphorothioate oligonucleotide.

COS cells = assay: Determining cell uptake after fluorescence labeling; type: cell-based; details: PNA solution 10 μM, 37° C., examined after 2, 4 and 16 hours
Experimental: COS cells were allowed to grow to confluence in Dulbecco's MEM, which was supplemented with 10% FCS, in 5 cm Petri dishes. The cells were washed twice with serum-free DMEM. An area of approx. 1 cm^2 was scratched out in the middle of the Petri dish using a sterile needle. The PNA solution (10 μM) under investigation was applied in this area. The dish was incubated at 37° C. under a CO2 atmosphere. After 2, 4 and 16 hours, the cells were examined by fluorescence microscopy. For this, the cells were washed four times with serum-free DMEM, covered with a cover slip, and evaluated under the fluorescence microscope or by phase contrast. PNA-5 and PNA-6 were examined by fluorescence microscopy.

## Ac-HN-tat tcc gtc at-hex [Reference, reference compound]
Complementary RNA
  Tm (RNA): 56.6 °C
Complementary DNA
  Tm (DNA): 41.9 °C

## p-t(oeg) at tcc gtc at-aminohexyl-p-fluorescein [PNA-5]
Complementary RNA
  Tm (RNA): 56.9 °C
Complementary DNA
  Tm (DNA): 41.8 °C
  degree of binding towards complementary DNA and RNA compared with the uncharged PNA (reference substance): equally good or better degree of binding

## C16-p-t(oeg) at tcc gtc at-aminohexyl-p-fluorescein [PNA-6]
[1]
  inhibition of proliferation compared with a corresponding phosphorothioate oligonucleotide: greater
Complementary RNA
  Tm (RNA): 56.9 °C
COS cells
  cell uptake by fluorescence microscopy, compared with the PNA with no hexadecyl radical: taken up more efficiently
Complementary DNA
  Tm (DNA): 44.1 °C
  degree of binding towards complementary DNA and RNA compared with the uncharged PNA (reference substance): equally good or better degree of binding
